According to ChEMBL document CHEMBL1158026, “New jaspamide derivatives from the marine sponge Jaspis splendans collected in Vanuatu” (J Nat Prod, 1999):
Values after ≈ are worked out from the molar mass of the structure shown.

Test: Cytotoxicity against human NSCLC-N6 cells by MTT assay
Type: functional, cell-based

Row | SMILES | IC50 [µg/mL]
1 | C=C1C[C@H](C)C(=O)N[C@@H](C)C(=O)N(C)[C@H](Cc2c(Br)[nH]c3ccccc23)C(=O)N[C@@H](c2ccc(O)cc2)CC(=O)O[C@@H](C)C[C@@H](C)C1O (stereo partly drawn) [JASPAMIDE C] | 1.1 (≈ 1.52 µM)
2 | C/C1=C\[C@H](C)C[C@H](C)OC(=O)C[C@H](c2ccc(O)cc2)NC(=O)[C@@H](Cc2c(Br)[nH]c3ccccc23)N(C)C(=O)[C@H](C)NC(=O)[C@@H](C)C1 [JASPAMIDE] | 0.36 (≈ 0.507 µM)
3 | C=C1C[C@H](C)C(=O)N[C@@H](C)C(=O)N(C)[C@H](Cc2c(Br)[nH]c3ccccc23)C(=O)N[C@@H](c2ccc(O)cc2)CC(=O)O[C@@H](C)C[C@@H](C)C1=O [JASPLAKINOLIDE B] | 3.3 (≈ 4.56 µM)
